Where no end group is shown, it is not given here. [ ]: non-standard residue; d: D form. The star is where a group is joined. Biotin = O=C1N[C@H]2[C@H](CS[C@H]2CCCCC(=O)*)N1; sY = N[C@@H](Cc1ccc(OS(=O)(=O)O)cc1)C(=O)O; pY = N[C@@H](Cc1ccc(OP(=O)(O)O)cc1)C(=O)O
How the values were obtained:
[1] = target: gp120LAI/CD4-IgG2 (Human immunodeficiency virus type 1 group M subtype B, UniProt P03377); details: peptide 1 μg/ml on streptavidin plate
Experimental: Streptavidin-coated ELISA plates (Pierce, Rockford, Ill.) were blocked with D-PBS/5% BSA for 2 hours at room temperature then washed three times with assay buffer (D-PBS/0.5% Tween 20/1% Fetal Bovine Serum/2% BSA). Plates were then contacted with sulfo- or phospho-peptides (1 μg/ml) for 1 hour at room temperature and washed three times with assay buffer. Mixtures of CD4-IgG2 (50 nM) and purified gp120 or gp120-containing supernatants in a 1:4 molar ratio were added to the plates for 1 hour at room temperature. Plates were washed three times and (HRP)-conjugated goat anti-human IgG was used to detect the presence of bound CD4-IgG2. The plates were developed using the TMB substrate as described above. Gp120/CD4-IgG2 binding to the peptides was normalized for CD4-IgG2binding to the mutant gp120 proteins.

[2] = tested on: gp120JR-FL/CD4-IgG2; experiment: CCR5 Nt peptide ELISA with gp120JR-FL/CD4-IgG2; format: binding, HIV-1; details: peptide 1 μg/ml on streptavidin plate
Experimental: (§2) Streptavidin-coated ELISA plates (Pierce, Rockford, Ill.) were blocked with D-PBS/5% BSA for 2 hours at room temperature then washed three times with assay buffer (D-PBS/0.5% Tween 20/1% Fetal Bovine Serum/2% BSA). Plates were then contacted with sulfo- or phospho-peptides (1 μg/ml) for 1 hour at room temperature and washed three times with assay buffer. […] The plates were developed using the TMB substrate as described above.

[3] = tested on: PA14; experiment: ELISA: direct binding of anti-CCR5 MAb PA14 to peptides; set-up: species or system murine
Experimental: (§1) In a competition ELISA, peptides were captured onto the plates as described above. Inhibitor or assay buffer was added for 1 h prior to addition of gp120JR-FL/CD4-IgG2 complex (1 nM) for an additional h at room temperature. The assay was then completed as described above. Direct binding of anti-CCR5 murine MAbs to the peptides was examined as described above except that MAb was substituted for gp120/CD4-IgG2 complex and a goat anti-mouse HRP-coupled antibody was used for detection.

[4] = tested on: gp120DH123/CD4-IgG2; experiment: CCR5 Nt peptide ELISA with gp120DH123/CD4-IgG2; format: binding, HIV-1; details: peptide 1 μg/ml on streptavidin plate
Experimental: as §2

[5] = tested on: PA10; experiment: ELISA: direct binding of anti-CCR5 MAb PA10 to peptides; set-up: species or system murine
Experimental: as §1

[6] = tested on: PA8; experiment: ELISA: direct binding of anti-CCR5 MAb PA8 to peptides; set-up: species or system murine
Experimental: as §1

[7] = tested on: PA11; experiment: ELISA: direct binding of anti-CCR5 MAb PA11 to peptides; set-up: species or system murine
Experimental: as §1

[8] = tested on: PA12; experiment: ELISA: direct binding of anti-CCR5 MAb PA12 to peptides; set-up: species or system murine
Experimental: as §1

[9] = target: CD4-IgG2 (Homo sapiens, UniProt P01730+P01834+P01859); experiment: CCR5 Nt peptide ELISA with CD4-IgG2 alone; format: binding
Experimental: as §2

[10] = tested on: V3 loop-deleted gp120JR-FL/CD4-IgG2; experiment: CCR5 Nt peptide ELISA with V3 loop-deleted gp120JR-FL/CD4-IgG2; format: binding, HIV-1
Experimental: as §2

[11] = tested on: gp120JR-FL alanine mutants/CD4-IgG2; experiment: ELISA: binding of gp120JR-FL alanine mutant/CD4-IgG2 complexes to sulfopeptide 2-18; set-up: species or system HIV-1
Experimental: Mutant gp120 proteins were generated using the QuickChange Kit from Stratagene (San-Diego, Calif.). Gp120JR-FL, cloned into the pPPI4 expression vector [4], served as the template for site directed mutagenesis. Nucleotide sequencing was performed to ascertain the presence of the appropriate mutation in the gp120 coding sequence. 293T cells were calcium phosphate transfected with the different mutant gp120 expression constructs. Supernatants containing soluble gp120 proteins were harvested and cleared of debris by centrifugation 24 hours post-transfection. Quantification of gp120 was performed by ELISA as previously described). Briefly, 293T supernatants were boiled for 5 minutes and denatured gp120 was captured on an ELISA plate coated with D7324 (International Enzymes Inc. Fallbrook, Calif.), a MAb that recognizes a 15 residue linear epitope in the carboxy-terminal end of gp120. Captured gp120 was detected by a mixture of anti-gp120 MAbs B12 and B13 [40], followed by incubation with a horseradish peroxidase-conjugated (HRP) anti-mouse IgG antibody (Amersham Pharmacia, Piscataway, N.J.). Optical density (O.D.) was measured at 450 nm using the ImmunoPure TMB Substrate kit (Pierce, Rockford, Ill.).
CD4-IgG2 binding to non-denatured mutant gp120 proteins also was measured. Plates coated with D7324 were used to capture native gp120 from supernatants of transiently transfected 293T cells. CD4-IgG2 (50 nM) was added to the plates and its binding was detected using an HRP-conjugated goat anti-human IgG and TMB substrate as described above.

[12] = target: T1, gp120JR-FL/CD4-IgG2 binding to the sulfopeptide 2-18 (Homo sapiens, UniProt P51681); experiment: Competition ELISA: gp120JR-FL/CD4-IgG2 binding to sulfopeptide 2-18; set-up: species or system HIV-1; details: complex 1 nM, up to supraphysiologic concentrations
T1 construct: a peptide spanning CCR5 residues 2-18 and containing sulfotyrosines in positions 10 and 14; host or cells: peptide synthetic
Experimental: as §1

[13] = target: T2, gp120/CD4 binding to cell surface CCR5 (Homo sapiens, UniProt P51681); details: cited from earlier work
T2 construct: Supernatants containing soluble gp120 proteins were harvested; made in house; host or cells: gp120: 293T supernatants; CCR5: L1.2-CCR5+ cells
T2 sequence (P51681 whole entry): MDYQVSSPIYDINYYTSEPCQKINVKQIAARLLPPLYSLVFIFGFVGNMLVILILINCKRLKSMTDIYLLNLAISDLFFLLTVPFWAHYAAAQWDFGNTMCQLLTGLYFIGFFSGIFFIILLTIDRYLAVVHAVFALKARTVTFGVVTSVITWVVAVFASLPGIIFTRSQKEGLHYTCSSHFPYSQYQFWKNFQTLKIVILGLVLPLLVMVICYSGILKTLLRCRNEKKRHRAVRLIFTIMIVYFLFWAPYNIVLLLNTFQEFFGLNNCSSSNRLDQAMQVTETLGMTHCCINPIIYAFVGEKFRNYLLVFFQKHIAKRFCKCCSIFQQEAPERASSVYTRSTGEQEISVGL

Molecule: 2-18(P): analogous CCR5 Nt phosphopeptide, residues 2-18, phosphotyrosines in positions 10 and 14, GAG spacer, biotinylated lysine (DYQVSSPI[pY]DIN[pY]YTSEGAGK(Biotin))
- Binding of gp120LAI/CD4-IgG2 to peptide (ELISA) [1]: No binding was observed
- Binding of gp120JR-FL/CD4-IgG2 to peptide (ELISA) [2]: No binding was observed
- Binding of PA14 to peptide (ELISA) [3]: does not recognize
- Binding of gp120DH123/CD4-IgG2 to peptide (ELISA) [4]: No binding was observed
- Binding of PA10 to peptide (ELISA) [5]: moderately
- Binding of PA8 to peptide (ELISA) [6]: avidly binds
- Binding of PA11 to peptide (ELISA) [7]: weakly
- Binding of PA12 to peptide (ELISA) [8]: undetectable

Molecule: 2-18: peptide spanning CCR5 residues 2-18, sulfotyrosines in positions 10 and 14, carboxy terminal GAG spacer and biotinylated lysine (DYQVSSPI[sY]DIN[sY]YTSEGAGK(Biotin))
- Binding of gp120LAI/CD4-IgG2 to peptide (ELISA) [1]: did not measurably bind
- Binding of gp120JR-FL/CD4-IgG2 to peptide (ELISA) [2]: strongest binding
- Binding of PA14 to peptide (ELISA) [3]: does not recognize
- Binding of CD4-IgG2 alone to peptide (ELISA) [9]: did not measurably bind
- Binding of PA10 to peptide (ELISA) [5]: binds avidly
- Binding of V3 loop-deleted gp120JR-FL/CD4-IgG2 to peptide (ELISA) [10]: did not measurably bind
- Effect of V3 loop crown residues on gp120 binding to the sulfopeptide ([11]; alanine mutants in the crown of the V3 loop, including the GPGR motif): no effect
- Decrease of complex binding to the sulfopeptide by C4 alanine substitutions ([11]; alanine substitutions of R419, I420, K421, Q422 and R444): 5-10 fold
- Effect of alanine substitutions of R440 and R469 on complex binding ([11]; gp120 R440A, R469A): increased complex binding
- Decrease of complex binding to the peptide by V3 loop stem alanine mutants ([11]; gp120 alanine mutants R298, N301, T303, I322, D324, I325, R326, normalized for CD4-IgG2 binding): > 10 fold
- Effect of alanine substitutions in other regions of gp120 on complex-peptide interactions ([11]; other regions of gp120): None of the alanine substitutions that we introduced in the other regions of gp120 significantly affected
- Binding of PA8 to peptide (ELISA) [6]: avidly binds
- Binding of PA11 to peptide (ELISA) [7]: binds moderately
- Binding of PA12 to peptide (ELISA) [8]: weak

Molecule: Cc1ccc(-c2ccc3c(c2)C=C(C(=O)Nc2ccc(C[N+](C)(C)C4CCOCC4)cc2)CCC3)cc1.[Cl-] [TAK-779]
- Inhibition of gp120JR-FL/CD4-IgG2 binding to the sulfopeptide 2-18 [12]: not inhibited
- Block of gp120/CD4 binding to CCR5 [13]: block
